Values quoted from earlier work in US7985768B2, “Compounds as cannabinoid receptor ligands” (priority 2006, dated 2011).

What was measured:
animal models of pain = conditions: models of acute thermal, persistent, inflammatory and neuropathic pain
[1] = at fully efficacious doses
mice = conditions: model for post-menopausal osteoporosis
[2] = system: apolipoprotein E knockout mice
microglial activation = conditions: in vitro
rat = rat formalin model of persistent pain
[3] = system: CB1 receptor knockout mice
[4] = system: CB2 receptor knockout mice
rodent models of pain = conditions: neuropathic, incisional, chronic and acute inflammatory pain

## CN1CCCCC1Cn1cc(C(=O)c2cc([N+](=O)[O-])ccc2I)c2ccccc21 (stereo not shown) [AM-1241]
Animal models of pain
  analgesic efficacy: robust analgesic efficacy
[1]
  CB1 receptor-mediated CNS side effects: devoid of typical CB1 receptor-mediated CNS side effects

## SR144528
osteoclast
  effect on osteoclast activity: inhibit osteoclast activity
mice
  effect on ovariectomy-induced bone loss: reverse ovariectomy-induced bone loss
[2]; antagonist against THC
  effect on the actions of THC on atherosclerotic lesions: inhibited
Microglial activation; antagonist against JWH-133
  effect on the actions of JWH-133: blocked

## CCCCCCC(C)(C)c1cc(OC)c([C@@H]2C=C(CO)[C@@H]3C[C@H]2C3(C)C)c(OC)c1 [HU-308]
rat
  antinociceptive response: elicits an antinociceptive response

## (−)-Δ^9-Tetrahydrocannabinol [Δ^9-THC]
[3]
  analgesic efficacy: retains some analgesic efficacy
[2]; low doses
  effect on progression of atherosclerotic lesions: slowed the progression of atherosclerotic lesions
[4]
  immunosuppressive effects: absent

## COc1ccc2c(c1)c(CCN1CCOCC1)c(C)n2C(=O)c1cccc(Cl)c1Cl [GW405833]
[1]
  CB1 receptor-mediated CNS side effects: devoid of typical CB1 receptor-mediated CNS side effects
Rodent models of pain
  efficacy in pain models: efficacious

## CCCC(C)(C)c1ccc2c(c1)OC(C)(C)[C@@H]1CC=C(C)C[C@@H]21 [JWH-133]
Microglial activation
  effect on β-amyloid-induced microglial activation and neurotoxicity: abrogated
